Series [1] deals with T1, Transient receptor potential cation channel subfamily V member 1 (Rattus norvegicus, UniProt O35433). As to the kind of experiment: Antagonist activity at rat TRPV1 expressed in CHO cells assessed blocking of capsaicin-induced calcium influx. It is filed as functional, cell-based.
The target in series [2] is T1, Transient receptor potential cation channel subfamily V member 1. Briefly: Antagonist activity at rat TRPV1 expressed in CHO cells assessed blocking of acid-induced calcium influx at pH 5. The class given is functional, cell-based.
A short description of series [3]: Bioavailability in Sprague-Dawley rat at 5 mg/kg. Conditions: in vivo. The class given is ADME, organism-based.
The nature of series [4]: AUC (0 to infinity) in Sprague-Dawley rat at 1 mg/kg, iv. The class given is ADME, organism-based. Also noted: time infinity, dose 1 mg/kg, route intravenous. As to conditions: plasma.
Series [5] can be described thus: Half life in Sprague-Dawley rat at 1 mg/kg, iv. Conditions: in vivo. It is filed as ADME, organism-based. Also noted: dose 1 mg/kg, route intravenous.
Series [6] can be described thus: Volume of distribution at steady state in Sprague-Dawley rat at 1 mg/kg, iv. Also noted: dose 1 mg/kg, route intravenous. As to conditions: in vivo, read-out: Vdss. It is filed as ADME, organism-based.
The nature of series [7]: Tmax in Sprague-Dawley rat at 5 mg/kg, po. The class given is ADME, organism-based. On the set-up: dose 5 mg/kg, route oral. As to conditions: in vivo.
Series [8] in a line: Cmax in Sprague-Dawley rat at 5 mg/kg, po. Conditions: in vivo. On the set-up: dose 5 mg/kg, route oral. It is filed as ADME, organism-based.
Series [9] can be described thus: AUC (0 to infinity) in Sprague-Dawley rat at 5 mg/kg, po. On the set-up: time infinity, dose 5 mg/kg, route oral. Conditions: plasma. The class given is ADME, organism-based.
The nature of series [10]: Clearance in Sprague-Dawley rat at 1 mg/kg, iv. Also noted: dose 1 mg/kg, route intravenous. As to conditions: in vivo. It is filed as ADME, organism-based.

Some results are limits rather than exact numbers.

T1 sequence (O35433 whole entry): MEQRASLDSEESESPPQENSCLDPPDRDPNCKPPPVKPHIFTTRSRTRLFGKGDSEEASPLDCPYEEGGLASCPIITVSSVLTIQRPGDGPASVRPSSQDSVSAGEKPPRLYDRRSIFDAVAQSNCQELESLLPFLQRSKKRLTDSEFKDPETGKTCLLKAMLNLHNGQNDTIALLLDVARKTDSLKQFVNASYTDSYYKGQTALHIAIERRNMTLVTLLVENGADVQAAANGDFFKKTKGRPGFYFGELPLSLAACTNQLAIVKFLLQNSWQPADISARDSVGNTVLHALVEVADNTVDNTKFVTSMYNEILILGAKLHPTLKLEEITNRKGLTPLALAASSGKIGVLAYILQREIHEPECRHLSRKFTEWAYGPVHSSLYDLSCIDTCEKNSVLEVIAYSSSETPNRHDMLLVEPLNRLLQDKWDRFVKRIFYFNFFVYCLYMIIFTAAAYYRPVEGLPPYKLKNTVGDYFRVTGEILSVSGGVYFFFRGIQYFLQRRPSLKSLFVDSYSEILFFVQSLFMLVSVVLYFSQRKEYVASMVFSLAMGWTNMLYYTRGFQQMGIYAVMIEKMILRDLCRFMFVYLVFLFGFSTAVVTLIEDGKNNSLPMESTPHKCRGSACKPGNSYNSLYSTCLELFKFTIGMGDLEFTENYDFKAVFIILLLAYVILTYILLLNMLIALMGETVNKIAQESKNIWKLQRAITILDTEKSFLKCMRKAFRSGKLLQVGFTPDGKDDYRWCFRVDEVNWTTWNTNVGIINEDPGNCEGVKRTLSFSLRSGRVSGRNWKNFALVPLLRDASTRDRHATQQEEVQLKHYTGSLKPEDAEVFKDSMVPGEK

`C[C@@H]1CN(c2ncc(CO)cc2Cl)CCN1c1nc(-c2ccccc2)c(-c2ccc(C(F)(F)F)cc2)[nH]1`: the IC50 in series [1] was 26 nM; in [2] it was 29 nM.

With `FC(F)(F)c1cccc(-c2[nH]c(N3CCN(c4ncccc4C(F)(F)F)CC3)nc2-c2ccccc2)c1`, the IC50 was determined as 1240 nM in [1] and 165 nM in [2].

With `Cc1nc(N2CCN(c3ncccc3C(F)(F)F)CC2)[nH]c1-c1ccc(C(F)(F)F)cc1`, the figures for the IC50 in series [1] and in series [2] were 628 nM and over 4000 nM, respectively.

The compound `FC(F)(F)c1ccc(-c2[nH]c(N3CCN(c4ncccc4C(F)(F)F)CC3)nc2-c2ccccc2)cc1` yielded a bioavailability in series [3] of 6%. Further, the IC50 in series [1] was determined as 107 nM; in series [2] it was 216 nM. The values for the AUC(0-inf) in [4] and in series [9] were 105 ng·h/mL and 30 ng·h/mL, respectively. The compound further showed a half-life in series [5] of 2.3 h. In series [6], the Vd came to 5 L/kg. Further, the Tmax in series [7] is 1.3 h. In series [8], this compound gave a Cmax of 13 ng/mL. In series [10], this compound showed a clearance of 167 mL/min/kg.

Consider `CC(C)N1CCN(C(=O)c2nc(N3CCN(c4ncccc4C(F)(F)F)CC3)[nH]c2-c2ccc(C(F)(F)F)cc2)CC1`, for which the IC50 in series [1] came to 700 nM; in series [2] it was 1000 nM.

For `OCc1cnc(N2CCN(c3nc(-c4ccccc4)c(-c4ccc(C(F)(F)F)cc4)[nH]3)CC2)c(Cl)c1`, the figures for the IC50 in [1] and in series [2] were 90 nM and 160 nM, respectively.

Regarding `C[C@@H]1CN(c2ncc(CO)cc2Cl)CCN1c1nc(-c2cc(F)c(F)c(F)c2)c(-c2ccc(C(F)(F)F)cc2)[nH]1`, the bioavailability in series [3] was 40%. Besides, the values for the IC50 in series [1] and in [2] were 1 nM and 4 nM, respectively. Also, the AUC(0-inf) in series [4] was 1230 ng·h/mL; in [9], 2460 ng·h/mL. The same compound gave a half-life in [5] of 6.3 h. Moreover, the Vd in series [6] was 5.4 L/kg. Also, the Tmax in series [7] is 4.7 h. Moreover, the Cmax in series [8] came out at 347 ng/mL. The same compound showed a clearance in [10] of 13.3 mL/min/kg.

As for `FC(F)(F)c1ccc(-c2c[nH]c(N3CCN(c4ncccc4C(F)(F)F)CC3)n2)cc1`, the IC50 is 861 nM in series [1] and over 4000 nM in series [2].

For `O=C(NCC1CCCCN1)c1nc(N2CCN(c3ncccc3C(F)(F)F)CC2)[nH]c1-c1ccc(C(F)(F)F)cc1` (stereo not given), the IC50 was 2950 nM in series [1] and over 4000 nM in series [2].

For the compound `FC(F)(F)c1ccc(-c2nc(N3CCN(c4ncccc4C(F)(F)F)CC3)[nH]c2-c2ccc(C(F)(F)F)cc2)cc1`, the IC50 in series [1] turned out to be 573 nM; in series [2], 146 nM.

For the compound `Fc1cc(-c2nc(N3CCN(c4ncccc4C(F)(F)F)CC3)[nH]c2-c2ccc(C(F)(F)F)cc2)cc(F)c1F`, in series [3], the bioavailability worked out at 3%. Moreover, the figures for the 50% inhibitory concentration (IC50) in series [1] and in series [2] were 7 nM and 20 nM, respectively. In addition, the area under the curve AUC(0-inf) is 529 ng·h/mL in series [4] and 80 ng·h/mL in [9]. Also, the half-life in series [5] was 1.9 h. Moreover, the Vd in series [6] stood at 1.7 L/kg. Further, the Tmax in [7] was 1 h. The same compound came in with a Cmax in series [8] of 17 ng/mL. Further, the clearance in series [10] is 31.7 mL/min/kg.

`Fc1cc(F)cc(-c2nc(N3CCN(c4ncccc4C(F)(F)F)CC3)[nH]c2-c2ccc(C(F)(F)F)cc2)c1`: the IC50 in [1] was found to be 35 nM; in series [2], 85 nM.

In the case of `FC(F)(F)c1ccc(-c2nc(N3CCN(c4ncccc4C(F)(F)F)CC3)[nH]c2Cl)cc1`, the IC50 in [1] is 160 nM; in series [2], over 4000 nM.

For `COC(=O)c1nc(N2CCN(c3ncccc3C(F)(F)F)CC2)[nH]c1-c1ccc(C(F)(F)F)cc1`, the IC50 in series [1] was determined as 1170 nM; in series [2], 180 nM.

As to `C[C@@H]1CN(c2ncccc2C(F)(F)F)CCN1c1nc(-c2ccccc2)c(-c2ccc(C(F)(F)F)cc2)[nH]1`, the IC50 in series [1] came out at 117 nM; in series [2] it was 341 nM.

For the compound `Fc1cc(-c2nc(N3CCN(c4ncccc4C(F)(F)F)CC3)[nH]c2-c2cc(F)c(F)c(F)c2)cc(F)c1F`, the results for the half-maximal inhibitory concentration (IC50) in [1] and in [2] were 44 nM and 32 nM, respectively.

For the compound `CCN1CCCC1CNC(=O)c1nc(N2CCN(c3ncccc3C(F)(F)F)CC2)[nH]c1-c1ccc(C(F)(F)F)cc1` (stereo not given), the IC50 worked out at 4100 nM in series [1] and 3300 nM in [2].

For the compound `CC(C)CN1CCCCC1CNC(=O)c1nc(N2CCN(c3ncccc3C(F)(F)F)CC2)[nH]c1-c1ccc(C(F)(F)F)cc1` (stereo not given), the figures for the half-maximal inhibitory concentration (IC50) in series [1] and in series [2] were 1900 nM and over 4000 nM, respectively.

For the origin of these results see ChEMBL document CHEMBL1140475, “Structure-activity relationship (SAR) investigations of substituted imidazole analogs as TRPV1 antagonists” (Bioorg Med Chem Lett, 2007).
